What was measured:
4T1-Luc2-1A4 cells = assay: 4T1-Luc2-1A4 mammary fat pad tumor model: tumor burden by caliper and BLI, metastases; type: in vivo, Balb/c mice; details: once daily for 15 days (Days 3-17); for Day 14 T/C (whole body BLI) / Day 14 median T/C (caliper measurements): p>0.05
Experimental: Female Envigo Balb/c mice (BALB/cAnNHsd) were used in this study. They were 6-7 weeks old on day 1 of the experiment. The animals were fed irradiated Harlan 2918.15 Rodent Diet and water ad libitum. Animals were housed in static cages with Bed-O'Cobs™ bedding inside Biobubble® Clean Rooms that provide H.E.P.A filtered air into the bubble environment at 100 complete air changes per hour. All treatments, imaging, body weight determinations, and tumor measurements were carried out in the bubble environment. The environment was controlled to a temperature range of 70°±2° F. and a humidity range of 30-70%.
4T1-Luc2-1A4 cells were obtained from PerkinElmer. They were grown in RPMI 1640 medium which was modified with 1% 100 mM Na pyruvate, 1% 1M HEPES buffer, 2.5 g/L glucose solution and supplemented with 10% non-heat-inactivated Fetal Bovine Serum (FBS) and 1% 100X Penicillin/Streptomycin/L-Glutamine (PSG). The growth environment was maintained in an incubator with a 5% CO2 atmosphere at 37° C. When expansion was complete, the cells (passage 5) were trypsinized using 0.25% trypsin-EDTA solution. Following cell detachment, the trypsin was inactivated by dilution with complete growth medium and any clumps of cells were separated by pipetting. The cells were centrifuged at 200 rcf for 8 minutes at 8° C., the supernatant was aspirated, and the pellet was re-suspended in cold Dulbecco's Phosphate Buffered Saline (DPBS) by pipetting. An aliquot of the homogeneous cell suspension was diluted in a trypan blue solution and counted using a Luna automated cell counter. The pre-implantation cell viability was 95%. The cell suspension was centrifuged at 200 rcf for 8 minutes at 8° C. The supernatant was aspirated and the cell pellet was re-suspended in cold 50% serum-free medium 50% Matrigel® to generate a final concentration of 1.0E+07 trypan-excluding cells/mL. The cell suspension was maintained on wet ice during implantation. Following implantation, an aliquot of the remaining cells was diluted with a trypan blue solution and counted to determine the post-implantation cell viability (95%).
Test animals were implanted subcutaneously into the mammary fat pad (MFP#4) on Day 0 with 5.0E+05 cells in 50 μL of serum free media in 50% Matrigel® using a 27-gauge needle and 1 mL syringe.
All mice were sorted into study groups based on body weight. The mice were distributed to ensure that the mean body weight for all groups was within 10% of the overall mean for the study population (group range 16.8-17.2 g). Treatment began on Day 3, prior to the tumors being palpable. All mice were dosed 0.2 mL/20 g. • Group 1: Vehicle Control (50% PEG400; 50% oleic acid) PO, once daily for 15 days (Days 3-17); • Group 2: N-[4-[(6,7-dimethoxy-4-quinolinyl)oxy]-3-fluorophenyl]-3-(4-fluorophenyl)-1,2,3,4-tetrahydro-1-(1-methylethyl)-2,4-dioxo-5-pyrimidinecarboxamide, 30 mg/kg PO, once daily for 15 days (Days 3-17); • Group 3: N-[4-[(6,7-dimethoxy-4-quinolinyl)oxy]-3-fluorophenyl]-3-(4-fluorophenyl)-1,2,3,4-tetrahydro-1-(1-methylethyl)-2,4-dioxo-5-pyrimidinecarboxamide, 10 mg/kg PO, once daily for 15 days (Days 3-17); • Group 4: N-[4-[(6,7-dimethoxy-4-quinolinyl)oxy]-3-fluorophenyl]-3-(4-fluorophenyl)-1,2,3,4-tetrahydro-1-(1-methylethyl)-2,4-dioxo-5-pyrimidinecarboxamide, 1 mg/kg PO, once daily for 15 days (Days 3-17); • Group 5: anti-CTLA-4 clone 9D9 antibody, 10 mg/kg IP, every third day for 2 treatments, then a 3 day rest for 2.5 weeks (Days 3, 6, 10, 13, 17) • Group 6: anti-CTLA-4 clone 9D9 antibody, 10 mg/kg IP, every third day for 2 treatments, then a 3 day rest for 2.5 weeks (Days 3, 6, 10, 13, 17), plus N-[4-[(6,7-dimethoxy-4-quinolinyl)oxy]-3-fluorophenyl]-3-(4-fluorophenyl)-1,2,3,4-tetrahydro-1-(1-methylethyl)-2,4-dioxo-5-pyrimidinecarboxamide, 30 mg/kg PO, once daily for 15 days (Days 3-17). […]

[1] = tested on: hematopoietic cell subsets; assay: Hematopoietic cell subset mean percentages in tumor and spleen, subjective comparison to the Control Group; type: in vivo, Balb/c mice; details: once daily (Days 3-17); for CD45+ cells that expressed PD-L1, increase vs Control Group: spleen
[2] = Assessment of side effects (tolerability, mortality, body weight); type: in vivo; details: once daily for 15 days (Days 3-17); for mean body weight loss: highest at study termination
Experimental: Animals were weighed on each day of treatment. Individual body weights were recorded three times weekly.
In this report, a dosage level is described as tolerated if treatment-related weight loss (during and two weeks after treatment) is <20% and mortality during this period in the absence of potentially lethal tumor burdens is <10%.
Upon death or euthanasia, all animals were necropsied to provide a general assessment of potential cause of death and perhaps target organs for toxicity. The presence or absence of metastases was also noted.

Q: Which “incidence of ex vivo lung metastases” value (4T1-Luc2-1A4 cells; 1 mg/kg PO) does the source give for `COc1cc2nccc(Oc3ccc(NC(=O)c4cn(C(C)C)c(=O)n(-c5ccc(F)cc5)c4=O)cc3F)c2cc1OC` [N-[4-[(6,7-dimethoxy-4-quinolinyl)oxy]-3-fluorophenyl]-3-(4-fluorophenyl)-1,2,3,4-tetrahydro-1-(1-methylethyl)-2,4-dioxo-5-pyrimidinecarboxamide] here?
A: The value was 100%.

Q: And the tumor free survivors (4T1-Luc2-1A4 cells; 1 mg/kg PO)?
A: Its tumor free survivors is 0%.

Q: What about the “incidence of axillary lymph node metastases based on in vivo imaging” value (shortened to “incidence … in vivo imaging”) (4T1-Luc2-1A4 cells; 1 mg/kg PO, 8/14) of the same compound?
A: Its value is 57%.

Q: What about the “Day 14 T/C (whole body BLI)” value (4T1-Luc2-1A4 cells; 1 mg/kg PO) of the same compound?
A: The value was 139%.

Q: And the “Day 14 median T/C (caliper measurements)” value (4T1-Luc2-1A4 cells; 1 mg/kg PO)?
A: Its value is 131%.

Q: And the “incidence of ex vivo lung metastases” value (4T1-Luc2-1A4 cells; 10 mg/kg PO)?
A: The value was 100%.

Q: What about the tumor free survivors (4T1-Luc2-1A4 cells; 10 mg/kg PO) of the same compound?
A: Its tumor free survivors is 0%.

Q: What about the “incidence … in vivo imaging” value (4T1-Luc2-1A4 cells; 10 mg/kg PO, 2/14) of the same compound?
A: Its value is 14%.

Q: And the “Day 14 T/C (whole body BLI)” value (4T1-Luc2-1A4 cells; 10 mg/kg PO)?
A: The value was 133%.

Q: And the “Day 14 median T/C (caliper measurements)” value (4T1-Luc2-1A4 cells; 10 mg/kg PO)?
A: Its value is 100%.

Q: What about the “incidence of ex vivo lung metastases” value (4T1-Luc2-1A4 cells; 30 mg/kg PO) of the same compound?
A: Its value is 100%.

Q: And the tumor free survivors (4T1-Luc2-1A4 cells; 30 mg/kg PO)?
A: The tumor free survivors was “no tumor free survivors”.

Q: What about the “incidence … in vivo imaging” value (4T1-Luc2-1A4 cells; 30 mg/kg PO, 3/14) of the same compound?
A: The value was 21%.

Q: And the “Day 14 T/C (whole body BLI)” value (4T1-Luc2-1A4 cells; 30 mg/kg PO)?
A: The value was 54%.

Q: And the “Day 14 median T/C (caliper measurements)” value (4T1-Luc2-1A4 cells; 30 mg/kg PO)?
A: Its value is 55%.

Q: What about the “NK cells that produced IFN-γ upon ex-vivo re-stimulation, increase vs Control Group” value ([1]; NK cells isolated from spleens, 30 mg/kg PO) of the same compound?
A: The value was 22%.

Q: And the “NK cells that produced IFN-γ upon ex-vivo re-stimulation, increase vs Control Group” value ([1]; NK cells isolated from tumors, 30 mg/kg PO)?
A: The value was 75%.

Q: What about the “CD45+ cells that expressed PD-L1, increase vs Control Group” value ([1]; 10 mg/kg PO) of the same compound?
A: The value was 8%.

Q: And the “CD45+ cells that expressed PD-L1, increase vs Control Group” value ([1]; 30 mg/kg PO)?
A: Its value is 16%.

Q: What about the “CD45+ cells expressing PD-L1, reduction vs Control Group” value ([1]; tumor, 1 mg/kg PO) of the same compound?
A: The value was 14%.

Q: And the “CD4+ T subset as a percent of total T cells, reduction vs Control Group” value ([1]; tumor, 10 mg/kg PO)?
A: Its value is 51%.

Q: And the “CD45+ cells expressing PD-L1, reduction vs Control Group” value ([1]; tumor, 10 mg/kg PO)?
A: Its value is 5%.

Q: What about the “Treg subset as a percent of total T cells, reduction vs Control Group” value ([1]; tumor, 10 mg/kg PO) of the same compound?
A: Its value is 61%.

Q: What about the “Tumor-derived cells that expressed CD45, increase vs Control Group” value ([1]; tumor, 10 mg/kg PO) of the same compound?
A: Its value is 18%.

Q: What about the “CD4+ T subset as a percent of total T cells, reduction vs Control Group” value ([1]; tumor, 30 mg/kg PO) of the same compound?
A: Its value is 54%.

Q: What about the “G-MDSC subset, reduction vs Control Group” value ([1]; tumor, 30 mg/kg PO) of the same compound?
A: Its value is 18%.

Q: What about the “M2 MAC subset, increase vs Control Group” value ([1]; tumor, 30 mg/kg PO) of the same compound?
A: The value was 72%.

Q: What about the “Treg subset as a percent of total T cells, reduction vs Control Group” value ([1]; tumor, 30 mg/kg PO) of the same compound?
A: The value was 69%.

Q: What about the “Tumor-derived cells that expressed CD45, increase vs Control Group” value ([1]; tumor, 30 mg/kg PO) of the same compound?
A: The value was 14%.

Q: And the tolerability ([2]; 1 mg/kg PO)?
A: Its tolerability is “well-tolerated”.

Q: What about the treatment-related mortality ([2]; 1 mg/kg PO) of the same compound?
A: The treatment-related mortality was “no treatment-related mortality”.

Q: And the “mean body weight loss” value ([2]; 1 mg/kg PO)?
A: Its value is 2.1%.

Q: What about the tolerability ([2]; 10 mg/kg PO) of the same compound?
A: The tolerability was “well-tolerated”.

Q: What about the treatment-related mortality ([2]; 10 mg/kg PO) of the same compound?
A: The treatment-related mortality was “no treatment-related mortality”.

Q: And the “mean body weight loss” value ([2]; 10 mg/kg PO)?
A: The value was 4.2%.

Q: What about the body weight change ([2]; 30 mg/kg PO) of the same compound?
A: The body weight change was “body weight gain”.

Q: What about the tolerability ([2]; 30 mg/kg PO) of the same compound?
A: Its tolerability is “well-tolerated”.

Q: What about the treatment-related mortality ([2]; 30 mg/kg PO) of the same compound?
A: Its treatment-related mortality is “no treatment-related mortality”.

Source: patent US20190185567A1, “COMBINATIONS FOR THE TREATMENT OF CANCER” (IGNYTA, INC., priority 2016, published 2019)
